Measurements as given in US12065407B2, “Dual acting FKBP12 and FKBP52 inhibitors” (PLEX PHARMACEUTICALS, INC., priority 2017, dated 2024).
Values joined by “and” are separate entries in the source; they are usually repeats but may differ in a detail not shown here. Equal values may be shown once. Read-outs that look alike come from different tables or passages of the source.

Experiments:
[1] = Distribution of inhibitors in plasma and brain after intravenous dosing of mice; format: in vivo; conditions: 1 mg/kg IV; for Plasma Concentrations, mean: n = 5; for concentration at 1 h / concentration at 0.15 h / concentration at 0.5 h: male, CD1, mouse, iv, 1 mg/kg
Procedure: Distribution of inhibitors in plasma and brain tissue was examined after intravenous dosing of mice with inhibitors. The experimental conditions were as follows: Mice: male CD1 about 8 weeks old; body weight: about 25 g; No. of groups: one; No. of animals per group: 5; vehicle for IV dosing: DMSO; dosage: 1 mg/kg.
Plasma samples were separated by centrifugation in presence of K2-EDTA as anticoagulant. Brain tissue were homogenized in phosphate buffer saline and processed for bioanalysis as per standard practice. Samples were analyzed by a discovery grade bio-analytical method using LC-MS/MS method.

[2] = Microsomal stability (Clint assay), human liver microsome; format: in vitro ADME; conditions: both sexes, liver microsomes, pH 7.4, 1 μM compound, 0.5 mg/mL protein, 1 mM NADPH, 37° C.; for microsomal CLint at 1 μM: read-out: Clearance CL int (human microsomes); for half-life at 1 μM: read-out: Human microsomes T1/2
Procedure: (§1) Microsomal stability measurements were carried out by Clint assay. Test compounds were incubated with liver microsome, and metabolic stability was determined over 45 minutes. The experimental conditions were as follows. […]

[3] = Microsomal stability (Clint assay), rat liver microsome; format: in vitro ADME; conditions: male, Sprague-Dawley, liver microsomes, pH 7.4, 1 μM compound, 0.5 mg/mL protein, 1 mM NADPH, 37° C.; for microsomal CLint at 1 μM: read-out: Clearance CL int (rat microsomes); for half-life at 1 μM: read-out: Rat microsomes T1/2
Procedure: as §1

[4] = tested on: PC12 cells; assay: Neurite outgrowth; format: cell-based, rat; conditions: light microscopy, bar graph
Procedure: PC12 rat pheochromocytoma or SH-SY5Y human neuroblastoma cells were grown on glass coverslips in a 24-well cell culture dish in a humidified incubator at 37° C., 5% CO2. After 24 hours, the cells were washed with phosphate buffered saline and the serum concentration of the growth medium was reduced to 0.2%. After 16 hours in the reduced serum medium, 0.1% dimethyl sulfoxide (vehicle control) or compounds dissolved in dimethyl sulfoxide were added to the growth medium. Following 2 hours of exposure to compounds, the growth medium was supplemented with 6-hydroxydopamine (or 0.1% ascorbic acid vehicle control), nerve growth factor (or phosphate-buffered saline vehicle control), in addition to 0.1% dimethyl sulfoxide (vehicle control) or compounds dissolved in dimethyl sulfoxide. […] Phase contrast images were captured at 20× magnification and the percentage of cells with neurites longer than 20 μm were scored for approximately 200 cells in each condition using ImageJ software.
PC12 rat pheochromocytoma or SH-SY5Y human neuroblastoma cells were grown on glass coverslips in a 24-well cell culture dish in a humidified incubator at 37° C. and 5% CO2. […] Phase contrast images were captured at 20× magnification and the percentage of cells with neurites longer than 20 μm were scored for approximately 200 cells in each condition using ImageJ software.

[5] = tested on: PC12 rat pheochromocytoma cells; assay: Neuroprotection from 6-hydroxydopamine in PC12 cells (WST-8); format: cell-based; conditions: WST-8 assay, FIG. 1
Procedure: (§2) BE(2)-M17 human neuroblastoma cells engineered to stably express either wild type or A53T mutant α-synuclein, PC12 rat pheochromocytoma, or SH-SY5Y human neuroblastoma cells were cultured in 96-well cell culture dishes in a humidified incubator at 37° C., 5% CO2. The growth medium was supplemented with 0.1% dimethyl sulfoxide (vehicle control) or compounds dissolved in dimethyl sulfoxide. Following 2 hours of exposure to compounds, the growth medium was further supplemented with 6-hydroxydopamine (or 0.1% ascorbic acid vehicle control) and incubated for an additional 24-48 hours.
Cell viability was measured by reduction of WST-8 or AlamarBlue® and the relative protection from 6-hydroxydopamine was measured by calculating the percentage of viable cells normalized to 6-hydroxydopamine treated cells in the absence of compound. See FIGS. 1A and 1B for neuroprotection observed in PC12 cells treated with dual acting FKBP12 and FKBP52 inhibitory exemplary compounds CAP01687 (FIG. 1A) and CAP01693 (FIG. 1B) measured using WST-8 assay. Specifically, FIGS. 1A and 1B, show relative percent protection from 6-OHDA, the vehicle control being set to 0% relative protection. […] The bars in FIGS. 3A and 3B depict relative percent fluorescence, which is proportional to cell viability, with the vehicle control being 100%.] […]

[6] = tested on: wild type α-synuclein overexpressing BE(2)-M17 cells (WT21); assay: Neuroprotection in wild type α-synuclein overexpressing BE(2)-M17 cells (WT21); format: cell-based, human; conditions: Alamar Blue assay
Procedure: as §2
(§3) Cell viability was measured by reduction of WST-8 or AlamarBlue® and the relative protection from 6-hydroxydopamine was measured by calculating the percentage of viable cells normalized to 6-hydroxydopamine treated cells in the absence of compound. See FIGS. 1A and 1B for neuroprotection observed in PC12 cells treated with dual acting FKBP12 and FKBP52 inhibitory exemplary compounds CAP01687 (FIG. 1A) and CAP01693 (FIG. 1B) measured using WST-8 assay. Specifically, FIGS. 1A and 1B, show relative percent protection from 6-OHDA, the vehicle control being set to 0% relative protection. […] Neuroprotection was also observed in A53T mutant α-synuclein overexpressing BE(2)-M17 cells (M3.2) treated with CAP01687 (FIG. 3B). The bars in FIGS. 3A and 3B depict relative percent fluorescence, which is proportional to cell viability, with the vehicle control being 100%.]
BE(2)-M17 human neuroblastoma cells engineered to stably express either wild type or A53T mutant α-synuclein, PC12 rat pheochromocytoma cells, or SH-SY5Y human neuroblastoma cells were cultured in 96-well cell culture dishes in a humidified incubator at 37° C. and 5% CO2. The growth medium was supplemented with 0.1% dimethyl sulfoxide (vehicle control) or compounds dissolved in dimethyl sulfoxide. […]
Cell viability was measured by reduction of WST-8 or alamarBlue® and the relative protection from 6-hydroxydopamine was measured by calculating the percentage of viable cells normalized to 6-hydroxydopamine treated cells in the absence of compound.

[7] = tested on: A53T mutant α-synuclein overexpressing BE(2)-M17 cells (M3.2); assay: Neuroprotection in A53T mutant α-synuclein overexpressing BE(2)-M17 cells (M3.2); format: cell-based, human; conditions: for Neuroprotection (cell viability): A53T mutant α-synuclein cells (M3.2), Alamar Blue assay
Procedure: as §2
as §3, with “See” for “Cell viability was measured by reduction of WST-8 or AlamarBlue® and the relative protection from 6-hydroxydopamine was measured by calculating the percentage of viable cells normalized to 6-hydroxydopamine treated cells in the absence of compound. See”
as §2, with “pheochromocytoma cells,” for “pheochromocytoma,”, “C. and” for “C.,”, “(OHDA) or” for “(or”, “hours. […]” for “hours.”

[8] = tested on: WT21 cells; assay: Cytotoxicity to WT21 cells (MTS tetrazolium dye reduction); format: cell-based, human; conditions: concentrations under 50 μM
[9] = brain, 1 h, n = 5, read-out: Brain concentrations, mean
[10] = plasma, 0.15 h, n = 5, read-out: Plasma Concentrations, mean
[11] = plasma, 0.5 h, n = 5, read-out: Plasma Concentrations, mean
[12] = plasma, 0.5 h, read-out: Plasma Concentrations, individual animals
[13] = plasma, 1 h, n = 5, read-out: Plasma Concentrations, mean
[14] = plasma, 1 h, read-out: Plasma Concentrations, individual animals

With `O=C(N[C@H](C(=O)NCCCc1ccccc1)c1ccccc1)c1ccc2cc(F)ccc2c1` [CAP01723, (2S)-2-[(6-fluoronaphthalen-2-yl)formamido]-2-phenyl-N-(3-phenylpropyl)acetamide] the “Plasma Concentrations, individual animals” value ([1]; 0.15 h) was 258.2 ng/mL and 225.3 ng/mL and 225.4 ng/mL and 244.2 ng/mL, the “Plasma Concentrations, mean” value ([1]; 0.15 h) was 239.7 ng/mL and the “Plasma Concentrations, individual animals” value ([1]; 0.5 h) was 106.1 ng/mL and 97.6 ng/mL and 102.6 ng/mL and 93.2 ng/mL. The “Plasma Concentrations, mean” value ([1]; 0.5 h) was 100.5 ng/mL, the “Brain concentrations, individual animals” value ([1]; 1 h) was 17.2 ng/G and 14.6 ng/G and 31.9 ng/G and 9.5 ng/G and 22.3 ng/G and the “Plasma Concentrations, individual animals” value ([1]; 1 h) was 41.1 ng/mL (2×) and 58.7 ng/mL (2×) and 53.5 ng/mL (2×) and 45.4 ng/mL (2×) and 50.3 ng/mL. For the same molecule, the “Plasma Concentrations, mean” value ([1]; 1 h) was 49.8 ng/mL, the concentration at 1 h [1, 9] was 19.1 ng/g and the concentration at 0.15 h [1, 10] was 240 ± 14.2 ng/mL. For the same molecule, the concentration at 0.15 h ([1]; plasma, 0.15 h, read-out: Plasma Concentrations, individual animals) was 246 ng/mL, the concentration at 0.5 h [1, 11] was 100 ± 5.1 ng/mL and the concentration at 0.5 h [1, 12] was 103 ng/mL. It also gave a concentration at 1 h [1, 13] of 49.8 ± 6.8 ng/mL, a concentration at 1 h [1, 14] of 50.3 ng/mL and a microsomal CLint at 1 μM [2] of 167 µL/min/mg. The half-life at 1 μM [2] was 8.29 min, the microsomal CLint at 1 μM [3] was 130 µL/min/mg and the half-life at 1 μM [3] was 10.7 min.
With `CCn1c(/C=C/c2ccc(Cl)cc2)nc2ccccc21` [CAP01510] the “Neurite outgrowth (percentage of cells with neurites longer than 20 μm)” value [4] was “dose dependent promotion of neurite outgrowth”.
For `O=C(N[C@@H](Cc1ccc(Cl)cc1)C(=O)NCCCc1cccnc1)c1ccc2cc(F)ccc2c1` [CAP01693, (2S)-3-(4-chlorophenyl)-2-[(6-fluoronaphthalen-2-yl)-formamido]-N-[3-(pyridine-3-yl)propyl]propanamide], the “Neuroprotection (relative percent protection from 6-OHDA)” value [5] was “neuroprotection”.
For `CC(C)CCn1c(/C=C/c2ccc(F)cc2)nc2ccccc21` [CAP01559], the “Neuroprotection (cell viability)” value [6] was “neuroprotection” and the “Neuroprotection (cell viability)” value [7] was “neuroprotection”.
For `COc1ccc(/N=N/c2nc3ccccc3n2C)c2ccccc12` [CAP01324], the “Cytotoxicity (relative change in absorbance, MTS)” value [8] was “not cytotoxic” and the “Neuroprotection (relative change in absorbance, MTS)” value ([7]; A53T mutant cells, 100 nM, MTS tetrazolium dye) was “neuroprotection”.
For `Cc1ccc(Cn2c(/C=C/c3ccc(F)cc3)nc3ccccc32)cc1` [CAP01551, 2-[2-(4-fluorophenyl)vinyl]-1-(4-methylbenzyl)-1H-benzimidazole], the “Plasma Concentrations, individual animals” value ([1]; 0.15 h) was 217.36 ng/mL and 295.33 ng/mL and 122.46 ng/mL and 203.22 ng/mL and 134.60 ng/mL, the “Plasma Concentrations, mean” value ([1]; 0.15 h) was 194.59 ng/mL and the “Plasma Concentrations, individual animals” value ([1]; 0.5 h) was 88.98 ng/mL and 46.31 ng/mL and 62.88 ng/mL and 56.74 ng/mL. The “Plasma Concentrations, mean” value ([1]; 0.5 h) was 65.36 ng/mL, the “Brain concentrations, individual animals” value ([1]; 1 h) was 81.88 ng/G and 57.91 ng/G and 63.84 ng/G and 74.50 ng/G and the “Plasma Concentrations, individual animals” value ([1]; 1 h) was 52.86 ng/mL (2×) and 27.45 ng/mL (2×) and 27.24 ng/mL (2×) and 27.74 ng/mL (2×) and 33.70 ng/mL. For the same molecule, the “Plasma Concentrations, mean” value ([1]; 1 h) was 33.80 ng/mL, the concentration at 1 h [1, 9] was 70.4 ng/g and the concentration at 1 h ([1]; brain, 1 h, read-out: Brain concentrations, individual animals) was 73.8 ng/g. For the same molecule, the concentration at 0.15 h [1, 10] was 195 ± 69.9 ng/mL, the concentration at 0.5 h [1, 11] was 65.4 ± 16.2 ng/mL and the concentration at 0.5 h [1, 12] was 71.9 ng/mL. The concentration at 1 h [1, 13] was 33.8 ± 11 ng/mL, the concentration at 1 h [1, 14] was 33.7 ng/mL and the microsomal CLint at 1 μM [2] was 52.4 µL/min/mg. For the same molecule, the half-life at 1 μM [2] was 26.4 min, the “Neuroprotection (cell viability)” value [6] was “neuroprotection” and the microsomal CLint at 1 μM [3] was 202 µL/min/mg. The half-life at 1 μM [3] was 6.85 min.
With `O=C(N[C@@H](Cc1ccc(Cl)cc1)C(=O)NCCCc1ccccc1)c1ccc2cc(F)ccc2c1` [CAP01687] the “Neuroprotection (relative percent protection from 6-OHDA)” value [5] was “neuroprotection”, the “Neuroprotection (cell viability)” value [6] was “neuroprotection” and the “Neuroprotection (cell viability)” value [7] was “neuroprotection”. The “Neurite outgrowth (percentage of cells with neurites longer than 20 μm)” value [4] was “promotion of neurite outgrowth”.
